# The supplement of paper PMC10307832
# How the values were obtained:
# Assay in all cases: relative viability (nuclei count vs DMSO), 5 days (fraction); higher = more cells survive
# [1] = compound: CN(c1ncccc1CNc1nc(Nc2ccc3c(c2)CC(=O)N3)ncc1C(F)(F)F)S(C)(=O)=O + CC(=O)c1c(C)c2cnc(Nc3ccc(N4CCNCC4)cn3)nc2n(C2CCCC2)c1=O [Palbociclib] (partner 0.5 µM)
# In short: (§1)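 A single step with final 0.05% Triton X-100, 1% formaldehyde and 1 ug/ml Hoechst fixed the cells and stained nuclei 5 days after treatment. Lung cancer cell lines in 1536-well plates had been treated by pin tool the day after seeding with one drug alone or a fixed anchor-drug dose plus five library-drug doses (not always all listed) in √10 steps, and nuclei were counted on 4× images. Relative viability is the ratio of nuclei in treated wells to nuclei in vehicle wells, taken as the median of duplicate plates.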
# [2] = compound: CN(c1ncccc1CNc1nc(Nc2ccc3c(c2)CC(=O)N3)ncc1C(F)(F)F)S(C)(=O)=O + Cc1nc(NC(=O)N2CCC[C@H]2C(N)=O)sc1-c1ccnc(C(C)(C)C(F)(F)F)c1 [Alpelisib] (partner 2 µM)
# In short: as §1
# [3] = compound: CN(c1ncccc1CNc1nc(Nc2ccc3c(c2)CC(=O)N3)ncc1C(F)(F)F)S(C)(=O)=O + Cc1nc(Nc2ncc(C(=O)Nc3c(C)cccc3Cl)s2)cc(N2CCN(CCO)CC2)n1 [Dasatinib] (partner 0.075 µM)
# In short: as §1
# [4] = compound: CN(c1ncccc1CNc1nc(Nc2ccc3c(c2)CC(=O)N3)ncc1C(F)(F)F)S(C)(=O)=O + CC(C)C[C@H](NC(=O)[C@H](Cc1ccccc1)NC(=O)c1cnccn1)B(O)O [Bortezomib] (partner 0.002 µM)
# In short: as §1
Cell Line,relative viability ([1]; first compound 0.01 µM),relative viability ([1]; first compound 0.03162 µM),relative viability ([1]; first compound 0.1 µM),relative viability ([1]; first compound 0.3162 µM),relative viability ([1]; first compound 1 µM),relative viability ([2]; first compound 0.01 µM),relative viability ([2]; first compound 0.03162 µM),relative viability ([2]; first compound 0.1 µM),relative viability ([2]; first compound 0.3162 µM),relative viability ([2]; first compound 1 µM),relative viability ([3]; first compound 0.01 µM),relative viability ([3]; first compound 0.03162 µM),relative viability ([3]; first compound 0.1 µM),relative viability ([3]; first compound 0.3162 µM),relative viability ([3]; first compound 1 µM),relative viability ([4]; first compound 0.01 µM),relative viability ([4]; first compound 0.03162 µM),relative viability ([4]; first compound 0.1 µM),relative viability ([4]; first compound 0.3162 µM),relative viability ([4]; first compound 1 µM)
NCI-H441,0.23,0.239,0.181,0.176,0.16,0.624,0.65,0.557,0.793,0.614,0.631,0.497,0.378,0.35,0.295,0.68,0.859,0.36,0.542,0.377
NCI-H1793,0.314,0.321,0.328,0.341,0.324,0.77,0.765,0.611,0.674,0.659,0.375,0.336,0.409,0.311,0.353,–,–,–,–,–
NCI-H23,0.581,0.538,0.549,0.618,0.455,0.668,0.84,0.727,0.692,0.56,0.78,0.697,0.882,0.835,0.719,1.22,1.38,1.09,1.08,1.03
HARA,0.211,0.276,0.231,0.203,0.247,0.733,0.79,0.744,0.695,0.625,0.228,0.17,0.19,0.201,0.217,1.12,1.07,1.13,1.2,1.09
NCI-H1792,0.627,0.783,0.63,0.637,0.602,0.661,0.68,0.654,0.695,0.728,0.803,0.841,0.623,0.581,0.55,1.02,0.999,0.83,0.924,0.941
NCI-H1703,–,–,–,–,–,0.329,0.419,0.321,0.345,0.294,–,–,–,–,–,0.311,0.295,0.415,0.481,0.235
NCI-H1648,0.264,0.274,0.224,0.242,0.207,–,–,–,–,–,–,–,–,–,–,–,–,–,–,–
CAL-12T,0.44,0.341,0.416,0.407,0.366,1.12,1.58,1.26,1.16,0.946,0.35,0.213,0.268,0.191,0.136,1.07,0.886,0.856,0.919,0.878
NCI-H727,0.681,0.607,0.651,0.684,0.688,0.638,0.606,0.565,0.448,0.444,0.363,0.287,0.271,0.272,0.264,0.897,1,0.73,0.765,0.731
NCI-H2085,0.444,0.467,0.443,0.462,0.401,0.903,0.904,0.882,0.922,0.812,0.215,0.232,0.178,0.183,0.152,1.06,1.11,1.04,1,0.949
